In patent US3998811A, “Optically active 1,4-benzodiazepines and process for the preparation thereof” (CRC Compagnia di Recerca Chimica S.A., priority 1971, dated 1976):

What was measured:
experimental animals = details: R- form; even at low dosages; cited from earlier work
mice [1] = experiment: Anticonvulsant effect against minimal electroshock, mice; format: in vivo; details: relative to chlordiazepoxide = 1.00, larger value = less effective
Description: (§1) The pharmacalogical activity of the novel compounds of this invention was evaluated by standard methods such as the anticonvulsant effect against pentylene tetrazole shock and maximal and minimal electroshock, muscle relaxing ability, the fighting test, and hypnotic effect. These standard test are described in detail in the literature, for example, in L. O. Randall, C. L. Schenkel, R. F. Banziger, Curr. Ther. Res., Clin. Exp., 590 (1965), and M. I. Gluckman, Curr. Ther. Res., Clin. Exp., 7,721 (1965).
(§2) This Example illustrates the pharmacological effectiveness of the compounds of this invention. A number of the compounds of this invention were tested for their pharmacological effect on the CNS by the procedures described above. Also tested were the corresponding racemic mixtures and three commercial tranquillizers:
(§3) The results of the tests are shown in Table IV wherein the relative potencies compared with that of chlordiazepoxide which is assigned an activity of 1.00. […] It can also be seen that the pharmaceutically active compounds of this invention compare favorably with some commercially useful tranquillizers and even surpass them in some respects.

mice [2] = experiment: Muscle relaxation (muscle relaxing ability), mice; format: in vivo; details: relative to chlordiazepoxide = 1.00, larger value = less effective
Description: as §1, §2, §3

mice [3] = experiment: Fighting test, mice; format: in vivo; details: relative to chlordiazepoxide = 1.00, larger value = less effective
Description: as §1, §2, §3

LD 50 P.O., mice = details: mouse, in vivo, po
mice [4] = experiment: Anticonvulsant effect against maximal electroshock, mice; format: in vivo; details: relative to chlordiazepoxide = 1.00, larger value = less effective
Description: as §1, §2, §3

mice [5] = experiment: Hypnotic effect, mice; format: in vivo; details: relative to chlordiazepoxide = 1.00, larger value = less effective
Description: as §1, §2, §3

mice [6] = experiment: Anticonvulsant effect against pentylene tetrazole shock, mice; format: in vivo; details: relative to chlordiazepoxide = 1.00, larger value = less effective
Description: as §1, §2, §3

[7] = S- form; cited from earlier work

Structure (SMILES)	known adverse effect in experimental animals (experimental animals)	Relative potency, anticonvulsant effect, minimal electro shock (mice [1])	Relative potency, muscle relaxation (mice [2])	Relative potency, fighting test (mice [3])	LD50 (LD 50 P.O., mice)	Relative potency, anticonvulsant effect, maximal electro shock (mice [4])	Relative potency, hypnotic effect (mice [5])	Relative potency, anticonvulsant effect, pentylene tetrazole (mice [6])	known pharmacological action [7]
CC[C@H](CO)NCCN[C@H](CC)CO [R- form, Ethambutole]	causes blindness in experimental animals, even at low dosages								
C[C@@H]1N=C(c2ccccc2)c2cc(Cl)ccc2N(C)C1=O [26 (S)]		0.10	0.70	1.00	2600 mg/kg	0.90	0.80	5.80	
C[C@@H]1N=C(c2ccccc2)c2cc(Cl)ccc2NC1=O [20 (S)]		0.20	1.0	1.0	2300 mg/kg	1.32	0.4	4.1	
O=C1Nc2ccc(Cl)cc2C(c2ccccc2)=NC1Cc1ccccc1 (racemic) [21 (Rac.)]		20.60	40.70	45.8		10.30	10.70	40.50	
O=C1Nc2ccc(Cl)cc2C(c2ccccc2)=N[C@H]1Cc1c[nH]c2ccccc12 [23 (S)]		1.70	6.20	7.10	2300 mg/kg	4.10	0.80	3.20	
O=C1Nc2ccc(Cl)cc2C(c2ccccc2)=N[C@H]1Cc1ccc(O)cc1 [22 (S)]		1.42	4.30	5.70	1850 mg/kg	6.30	4.20	7.3	
CC[C@@H](CO)NCCN[C@@H](CC)CO [S- form of Ethambutole, Ethambutole]									anti-tuberculous agent
CN1C(=O)C(OCC(O)CO)N=C(c2ccccc2)c2cc(Cl)ccc21 [31 (S)]			0.80	1.0	6000 mg/kg	0.38	0.42	10.30	
O=C1Nc2ccc(Cl)cc2C(c2ccccc2)=N[C@H]1Cc1ccccc1 [21 (S)]		2.30	4.10	4.50	1600 mg/kg	4.82	2.10	5.30	
CN1C(=O)C(OCC(O)CO)N=C(c2ccccc2)c2cc(Cl)ccc21 (racemic) [31 (Rac.)]		2.30	9.60	8.74		4.72	2.30	105.4	
O=C1Nc2ccc(Cl)cc2C(c2ccccc2)=NC1O (stereo not drawn) [Oxazepam, 7-chloro-1,3-dihydro-3-hydroxy-5-phenyl-2H-1,4-benzodiazepine-2-one]			0.62		3700 mg/kg				
CC1N=C(c2ccccc2)c2cc(Cl)ccc2N(C)C1=O (racemic) [26 (Rac.)]		2.10	6.54	8.94		10.20	2.70	47.30	
O=C1Nc2ccc(Cl)cc2C(c2ccccc2)=NC1Cc1ccc(O)cc1 (racemic) [22 (Rac.)]		16.70	46.20	56.30		65.40	18.60	75.6	
O=C1Nc2ccc(Cl)cc2C(c2ccccc2)=NC1Cc1c[nH]c2ccccc12 (racemic) [23 (Rac.)]		14.60	60.50	80.30		38.70	8.30	30.60	
CC(C)C1N=C(c2ccccc2)c2cc(Cl)ccc2NC1=O (racemic) [25 (Rac.)]		4.70	8.60	9.30		20.30	4.20	20.4	
CC(O)C1N=C(c2ccccc2)c2cc(Cl)ccc2NC1=O (racemic) [24 (Rac.)]		3.27	5.42	16.30		12.60	3.20	105.60	
C[C@@H](O)[C@@H]1N=C(c2ccccc2)c2cc(Cl)ccc2NC1=O [24 (S)]		0.45	0.62	1.70	6000 mg/kg	1.30	0.51	10.30	
CN1CCN=C(c2ccccc2)c2cc(Cl)ccc21 [Medazepam, 7-chloro-5-phenyl-1-methyl-1,2-dihydro-3H-1,4-benzodiazepine]		0.32	1.3	1.0	1420 mg/kg	1.03	0.30	6.2	
CC1N=C(c2ccccc2)c2cc(Cl)ccc2NC1=O (racemic) [20 (Rac.)]		5.00	9.60	10.4		8.20	2.30	30.40	
CC(C)[C@@H]1N=C(c2ccccc2)c2cc(Cl)ccc2NC1=O [25 (S)]		0.30	1.15	1.40	1850 mg/kg	1.75	0.80	1.80	
